Results taken from patent US20140148443A1, “Novel Imidazolines as dual inhibitors of MDM2 and MDMX” (priority 2012, published 2014).

Experiments:
[1] = target: T1, GST-tagged MDMX (Homo sapiens, UniProt O15151); assay: HTRF binding assay of GST-tagged MDMX to p53 peptide
T1 sequence (O15151 1-490): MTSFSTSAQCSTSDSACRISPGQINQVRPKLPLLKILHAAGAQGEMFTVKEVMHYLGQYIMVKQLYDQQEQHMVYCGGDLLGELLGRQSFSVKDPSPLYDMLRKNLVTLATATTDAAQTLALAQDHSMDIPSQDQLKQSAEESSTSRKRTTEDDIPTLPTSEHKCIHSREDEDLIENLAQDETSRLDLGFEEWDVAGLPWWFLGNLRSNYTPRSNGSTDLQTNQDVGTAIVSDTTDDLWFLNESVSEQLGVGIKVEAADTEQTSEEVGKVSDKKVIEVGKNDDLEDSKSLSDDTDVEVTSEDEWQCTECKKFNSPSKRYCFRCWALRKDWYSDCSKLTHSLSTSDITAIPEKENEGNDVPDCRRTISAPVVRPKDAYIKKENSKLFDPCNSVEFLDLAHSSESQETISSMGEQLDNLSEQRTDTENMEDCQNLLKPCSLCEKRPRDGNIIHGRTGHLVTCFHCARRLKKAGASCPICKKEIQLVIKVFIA

[2] = target: recombinant GST-tagged MDM2 (Homo sapiens, UniProt Q00987); assay: HTRF assay of interaction between p53 peptide and GST-tagged MDM2; conditions: inhibition of GST-MDM2 (160 ng/ml) binding to biotinylated p53-peptide
Sequence of recombinant GST-tagged MDM2 (Q00987 whole entry): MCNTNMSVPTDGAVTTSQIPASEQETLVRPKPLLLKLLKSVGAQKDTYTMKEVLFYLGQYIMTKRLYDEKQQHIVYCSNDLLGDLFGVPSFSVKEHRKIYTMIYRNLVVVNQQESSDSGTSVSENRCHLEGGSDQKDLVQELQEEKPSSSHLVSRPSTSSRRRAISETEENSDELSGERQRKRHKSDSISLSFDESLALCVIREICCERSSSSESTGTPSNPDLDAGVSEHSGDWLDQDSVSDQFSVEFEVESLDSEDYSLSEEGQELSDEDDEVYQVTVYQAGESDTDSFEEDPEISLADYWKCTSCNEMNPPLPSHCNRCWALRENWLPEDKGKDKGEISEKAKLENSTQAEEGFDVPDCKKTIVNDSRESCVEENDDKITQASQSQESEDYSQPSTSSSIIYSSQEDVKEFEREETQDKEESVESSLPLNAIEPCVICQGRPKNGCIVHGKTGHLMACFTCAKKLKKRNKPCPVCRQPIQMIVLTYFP
Experimental: The ability of a test compound to inhibit the interaction between p53 and MDM2 protein was measured by an HTRF (homogeneous time-resolved fluorescence) assay in which recombinant GST-tagged MDM2 binds to a peptide that resembles the MDM2-interacting region of p53 Aca-[…]-OH hereinafter p53-peptide). Binding of GST-MDM2 protein and p53-peptide (biotinylated on its N-terminal end) is registered by the FRET (fluorescence resonance energy transfer) between Europium (Eu)-labeled anti-GST antibody and streptavidin-conjugated Allophycocyanin (APC).
The test was performed in black flat-bottom 384-well plates (Costar) in a total volume of 40 uL containing: 90 nM biotinylated peptide, 160 ng/ml GST-MDM2, 20 nM streptavidin-APC (PerkinElmerWallac), 2 nM Eu-labeled anti-GST-antibody (PerkinElmerWallac), 0.02% bovine serum albumin (BSA), 1 mM dithiothreitol (DTT) and 20 mM […] (TBS) buffer as follows: add 10 uL of GST-MDM2 (640 ng/ml working solution) in reaction buffer to each well. Add 10 uL diluted compounds (1:5 dilution in reaction buffer) to each well, mix by shaking. Add 20 uL biotinylated p53 peptide (180 nM working solution) in reaction buffer to each well and mix on shaker. Incubate at 37° C. for 1 h. Add […] streptavidin-APC and Eu-anti-GST antibody mixture (6 nM Eu-anti-GST and 60 nM streptavidin-APC working solution) in TBS buffer with 0.02% BSA, shake at room temperature for 30 minutes and read using a TRF-capable plate reader at 665 and 615 nm (Victor 5, Perkin ElmerWallac). If not specified, the reagents were purchased from Sigma Chemical Co.

Row | Structure (SMILES) | IC50 [1] | IC50 [2]
1 | CCOCCN(CCOCC)C(=O)CN1CCN(C(=O)N2C(c3cc(S(C)(=O)=O)c(Cl)cc3OCC)=N[C@@](C)(c3ccc(Cl)cc3)[C@@]2(C)c2ccc(Cl)cc2)CC1 [Example 16, 2-{4-[(4S,5R)-2-(4-Chloro-2-ethoxy-5-methanesulfonyl-phenyl)-4,5-bis-(4-chloro-phenyl)-4,5-dimethyl-4,5-dihydro-imidazole-1-carbonyl]-piperazin-1-yl}-N,N-bis-(2-ethoxy-ethyl)-acetamide] | 849 nM | 5 nM
2 | CCOc1cc(Cl)c(S(C)(=O)=O)cc1C1=N[C@@](C)(c2ccc(Cl)cc2)[C@@](C)(c2ccc(Cl)cc2)N1C(=O)N1CCN(CC(=O)N2CCOCC2)CC1 [Example 17, 2-{4-[(4S,5R)-2-(4-Chloro-2-ethoxy-5-methanesulfonyl-phenyl)-4,5-bis-(4-chloro-phenyl)-4,5-dimethyl-4,5-dihydro-imidazole-1-carbonyl]-piperazin-1-yl}-1-morpholin-4-yl-ethanone] | 1340 nM | 5.2 nM
3 | CCOc1cc(Cl)c(S(C)(=O)=O)cc1C1=N[C@@](C)(c2ccc(Cl)cc2)[C@@](C)(c2ccc(Cl)cc2)N1C(=O)N1CCN(CCS(C)(=O)=O)CC1 [Example 18, [(4S,5R)-2-(4-Chloro-2-ethoxy-5-methanesulfonyl-phenyl)-4,5-bis-(4-chloro-phenyl)-4,5-dimethyl-4,5-dihydro-imidazol-1-yl]-[4-(2-methanesulfonyl-ethyl)-piperazin-1-yl]-methanone] | 1430 nM | 6 nM
4 | CCOc1cc(Cl)c(S(C)(=O)=O)cc1C1=N[C@@](C)(c2ccc(Cl)cc2)[C@@](C)(c2ccc(Cl)cc2)N1C(=O)N1CCC2(CCNCC2)CC1 [Example 19, [(4S,5R)-2-(4-Chloro-2-ethoxy-5-methanesulfonyl-phenyl)-4,5-bis-(4-chloro-phenyl)-4,5-dimethyl-4,5-dihydro-imidazol-1-yl]-(3,9-diaza-spiro[5.5]undec-3-yl)-methanone] | 3770 nM | 12.5 nM
5 | CCOc1cc(Cl)c(S(C)(=O)=O)cc1C1=N[C@@](C)(c2ccc(Cl)cc2)[C@@](C)(c2ccc(Cl)cc2)N1C(=O)N1CCN(C2CCS(=O)(=O)C2)CC1 (stereo partly drawn) [Example 20, [(4S,5R)-2-(4-Chloro-2-ethoxy-5-methanesulfonyl-phenyl)-4,5-bis-(4-chloro-phenyl)-4,5-dimethyl-4,5-dihydro-imidazol-1-yl]-[4-(1,1-dioxo-tetrahydro-thiophen-3-yl)-piperazin-1-yl]-methanone] | 3650 nM | 5.4 nM
6 | CCOc1cc(Cl)c(S(C)(=O)=O)cc1C1=N[C@@](C)(c2ccc(Cl)cc2)[C@@](C)(c2ccc(Cl)cc2)N1C(=O)N1CCC2(CCN(CC(N)=O)CC2)CC1 [Example 21, 2-{9-[(4S,5R)-2-(4-Chloro-2-ethoxy-5-methanesulfonyl-phenyl)-4,5-bis-(4-chloro-phenyl)-4,5-dimethyl-4,5-dihydro-imidazole-1-carbonyl]-3,9-diaza-spiro[5.5]undec-3-yl}-acetamide] | 1490 nM | 5.8 nM
7 | CCOc1cc(Cl)c(S(C)(=O)=O)cc1C1=N[C@@](C)(c2ccc(Cl)cc2)[C@@](C)(c2ccc(Cl)cc2)N1C(=O)N1CCC(CCCS(C)(=O)=O)CC1 [Example 22, [(4S,5R)-2-(4-Chloro-2-ethoxy-5-methanesulfonyl-phenyl)-4,5-bis-(4-chloro-phenyl)-4,5-dimethyl-4,5-dihydro-imidazol-1-yl]-[4-(3-methanesulfonyl-propyl)-piperidin-1-yl]-methanone] | 1350 nM | 4.6 nM
8 | CCOc1cc(Cl)c(S(C)(=O)=O)cc1C1=N[C@@](C)(c2ccc(Cl)cc2)[C@@](C)(c2ccc(Cl)cc2)N1C(=O)N1CCN(CC(=O)N(CCOC(C)C)CCOC(C)C)CC1 [Example 23, 2-{4-[(4S,5R)-2-(4-Chloro-2-ethoxy-5-methanesulfonyl-phenyl)-4,5-bis-(4-chloro-phenyl)-4,5-dimethyl-4,5-dihydro-imidazole-1-carbonyl]-piperazin-1-yl}-N,N-bis-(2-isopropoxy-ethyl)-acetamide] | 1850 nM | 5.5 nM
9 | CCOc1cc(Cl)c(S(C)(=O)=O)cc1C1=N[C@@](C)(c2ccc(Cl)cc2)[C@@](C)(c2ccc(Cl)cc2)N1C(=O)N1CCC(CC(=O)N(CCOC)CCOC)CC1 [Example 24, 2-{1-[(4S,5R)-2-(4-Chloro-2-ethoxy-5-methanesulfonyl-phenyl)-4,5-bis-(4-chloro-phenyl)-4,5-dimethyl-4,5-dihydro-imidazole-1-carbonyl]-piperidin-4-yl}-N,N-bis-(2-methoxy-ethyl)-acetamide] | 1520 nM | 7.2 nM
10 | CCOCCN(CCOCC)C(=O)CC1CCN(C(=O)N2C(c3cc(S(C)(=O)=O)c(Cl)cc3OCC)=N[C@@](C)(c3ccc(Cl)cc3)[C@@]2(C)c2ccc(Cl)cc2)CC1 [Example 25, 2-{1-[(4S,5R)-2-(4-Chloro-2-ethoxy-5-methanesulfonyl-phenyl)-4,5-bis-(4-chloro-phenyl)-4,5-dimethyl-4,5-dihydro-imidazole-1-carbonyl]-piperidin-4-yl}-N,N-bis-(2-ethoxy-ethyl)-acetamide] | 1510 nM | 4.4 nM
11 | CCOc1cc(Cl)c(S(C)(=O)=O)cc1C1=N[C@@](C)(c2ccc(Cl)cc2)[C@@](C)(c2ccc(Cl)cc2)N1C(=O)N1CCN(CCS(=O)(=O)CC)CC1 [Example 26, [(4S,5R)-2-(4-Chloro-2-ethoxy-5-methanesulfonyl-phenyl)-4,5-bis-(4-chloro-phenyl)-4,5-dimethyl-4,5-dihydro-imidazol-1-yl]-[4-(2-ethanesulfonyl-ethyl)-piperazin-1-yl]-methanone] | 2010 nM | 5.2 nM
12 | CCOc1cc(Cl)c(S(C)(=O)=O)cc1C1=N[C@@](C)(c2ccc(Cl)cc2)[C@@](C)(c2ccc(Cl)cc2)N1C(=O)N1CCN(CCC(N)=O)CC1 [Example 27, 3-{4-[(4S,5R)-2-(4-Chloro-2-ethoxy-5-methanesulfonyl-phenyl)-4,5-bis-(4-chloro-phenyl)-4,5-dimethyl-4,5-dihydro-imidazole-1-carbonyl]-piperazin-1-yl}-propionamide] | 2810 nM | 8.8 nM
13 | CCOc1cc(Cl)c(S(C)(=O)=O)cc1C1=N[C@@](C)(c2ccc(Cl)cc2)[C@@](C)(c2ccc(Cl)cc2)N1C(=O)N1CCC2(CCN(CCS(=O)(=O)CC)CC2)CC1 [Example 28, [(4S,5R)-2-(4-Chloro-2-ethoxy-5-methanesulfonyl-phenyl)-4,5-bis-(4-chloro-phenyl)-4,5-dimethyl-4,5-dihydro-imidazol-1-yl]-[9-(2-ethanesulfonyl-ethyl)-3,9-diaza-spiro[5.5]undec-3-yl]-methanone] | 1490 nM | 4.6 nM
14 | CCOc1cc(Cl)c(S(C)(=O)=O)cc1C1=N[C@@](C)(c2ccc(Cl)cc2)[C@@](C)(c2ccc(Cl)cc2)N1C(=O)N1CCN(CC(=O)NC)CC1 [Example 29, 2-{4-[(4S,5R)-2-(4-Chloro-2-ethoxy-5-methanesulfonyl-phenyl)-4,5-bis-(4-chloro-phenyl)-4,5-dimethyl-4,5-dihydro-imidazole-1-carbonyl]-piperazin-1-yl}-N-methyl-acetamide] | 1010 nM | 5 nM
15 | CCOc1cc(Cl)c(S(C)(=O)=O)cc1C1=N[C@@](C)(c2ccc(Cl)cc2)[C@@](C)(c2ccc(Cl)cc2)N1C(=O)N1CCC(NC(=O)N2CCCC2)CC1 [Example 30, Pyrrolidine-1-carboxylic acid {1-[(4S,5R)-2-(4-chloro-2-ethoxy-5-methanesulfonyl-phenyl)-4,5-bis-(4-chloro-phenyl)-4,5-dimethyl-4,5-dihydro-imidazole-1-carbonyl]-piperidin-4-yl}-amide] | 3350 nM | 12.7 nM
16 | CCOc1cc(Cl)c(S(C)(=O)=O)cc1C1=N[C@@](C)(c2ccc(Cl)cc2)[C@@](C)(c2ccc(Cl)cc2)N1C(=O)N1CCC(NC(=O)NC2CCCC2)CC1 [Example 31, 1-{1-[(4S,5R)-2-(4-Chloro-2-ethoxy-5-methanesulfonyl-phenyl)-4,5-bis-(4-chloro-phenyl)-4,5-dimethyl-4,5-dihydro-imidazole-1-carbonyl]-piperidin-4-yl}-3-cyclopentyl-urea] | 1590 nM | 5.3 nM
